Several values for one entry are separate records, joined by “and”; a condition that tells them apart may be missing. Equal entries are not always repeated.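 96-well plates; 48 h exposure; 5 concentrations. Endpoints by linear interpolation between flanking doses. Not reached: highest tested concentration assigned. GI50: concentration for 50% inhibition of growth. TGI is the concentration that stops growth completely.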
Assays:
Assay in all cases: growth of human tumour cells (NCI), 48 h
SNB-75 CNS = test system: SNB-75 CNS
RPMI-8226 leukemia = test system: RPMI-8226 leukemia
A549 NSCLC = test system: A549 NSCLC
COLO 205 colon = test system: COLO 205 colon
LOX IMVI melanoma = test system: LOX IMVI melanoma
NCI-H460 lung = test system: NCI-H460 lung
OVCAR-4 ovarian = test system: OVCAR-4 ovarian
K-562 leukemia = test system: K-562 leukemia
UO-31 renal = test system: UO-31 renal
HOP-92 NSCLC = test system: HOP-92 NSCLC

Structure (SMILES)	GI50 (SNB-75 CNS) [nM]	TGI (SNB-75 CNS) [µM]	GI50 (RPMI-8226 leukemia) [nM]	TGI (RPMI-8226 leukemia)	GI50 (A549 NSCLC) [nM]	TGI (A549 NSCLC) [µM]	GI50 (COLO 205 colon) [nM]	TGI (COLO 205 colon)	GI50 (LOX IMVI melanoma) [nM]	TGI (LOX IMVI melanoma) [µM]	GI50 (NCI-H460 lung) [nM]	TGI (NCI-H460 lung)	GI50 (OVCAR-4 ovarian) [nM]	TGI (OVCAR-4 ovarian)	GI50 (K-562 leukemia) [nM]	TGI (K-562 leukemia) [µM]	GI50 (UO-31 renal) [nM]	TGI (UO-31 renal) [µM]	GI50 (HOP-92 NSCLC) [nM]	TGI (HOP-92 NSCLC)
CCOC(=O)/C(=C/c1c(-c2ccccc2)[nH]c2ccccc12)C(=O)c1ccc(Cl)cc1	4870	> 100	2920	> 100 µM	4610	> 100	1980	4.36 µM	3640	> 100	3030	10.3 µM	4820	> 100 µM	3420	> 100	3860	> 100	1930	15 µM
Cn1cc(-c2ccc3c(c2)ncn3-c2ccc(CC(=O)Nc3cc(C(C)(C)C)on3)cc2)cn1	474	2.87	3350	> 100 µM	1490	8.76	1950	5.24 µM	732	4.87	2450	> 37.7 µM	501	19.1 µM	28.4	> 100	224	2.2	227	1.42 µM
COc1ccc(C=O)c(N(C)C(=O)C(C)(C)C)c1	–	> 100	–	> 100 µM	–	> 100	–	> 100 µM	–	> 100	–	> 100 µM	–	> 100 µM	–	> 100	–	> 100	–	> 100 µM
O=[N+]([O-])c1ccc([I+]c2ccccc2)cc1	1660	3.28	4640	47.2 µM and 54.2 µM	1930	–	1370	13.5 µM and 3.82 µM	583	1.99	1780	11.9 µM and 3.93 µM	1670	11.9 µM and 3.69 µM	–	> 53.2	–	11.9	–	23.5 µM and 25.1 µM
CCN1C(=O)N(CC)C2C1NN=c1s/c(=C\c3ccc([N+](=O)[O-])cc3)c(=O)n12 (centres undefined)	181	0.783	449	> 38.9 µM	681	> 100	469	11.8 µM	507	> 100	369	> 100 µM	744	10.5 µM	350	> 100	903	> 100	2190	> 100 µM
CCN1CCC(O)(c2ccccc2)C(C(=O)c2ccccc2)C1 (centres undefined)	–	> 100	–	33.4 µM	–	> 100	–	53.1 µM	–	> 31.6	–	> 100 µM	–	32.8 µM	–	> 66	–	> 70	–	36.1 µM
CC1=C(C(=O)Nc2cc(F)c(F)cc2F)C(c2cccc([N+](=O)[O-])c2)C(C(=O)Nc2ccccc2C(F)(F)F)=C(C)N1 (centres undefined)	–	38.4	–	37.4 µM	–	> 100	–	> 100 µM	–	39.4	–	43.6 µM	–	66.1 µM	–	36.7	–	42	–	32.3 µM
CCN(CC)c1ccc(/C=C/C2=[N+](C)c3ccccc3C2(C)C)cc1	340	17.3	55.7	> 61.6 µM	518	> 100	161	0.392 µM	251	23	312	15.8 µM	292	29.7 µM	3440	> 100	3260	18.1	766	> 35.2 µM
NCCCNCCCNc1nc2ccccc2c2[nH]c3ccccc3c12	224	1.29	343	3.51 µM	50.9	4.05	182	2.12 µM	36.3	1.12	39.9	1.74 µM	198	1.39 µM	57.8	–	309	3.17	173	0.747 µM
C[C@@H](Oc1cc(-n2cnc3ccc(OCC4CCN(C)CC4)cc32)sc1C(N)=O)c1ccccc1C(F)(F)F	85.3	1.42	133	5.89 µM	131	2.7	75.2	0.401 µM	106	3.27	87.2	3.1 µM	699	4.69 µM	83.2	3.31	948	4.33	307	3.43 µM
COc1cc2c(c(Br)c1N)-c1cc(Br)c(N)cc1C2=O	1960	> 100	> 100000	> 100 µM	> 89900	> 100	> 87000	> 100 µM	> 100000	> 100	3210	> 100 µM	1770	> 100 µM	> 100000	> 100	> 100000	> 100	2980	> 100 µM
O=C(/C=C/c1cccnc1)/C=C/c1cccnc1	1800	7.33	73.2	0.252 µM	2320	6.23	1350	2.77 µM	1130	2.42	2500	7.29 µM	2000	4.52 µM	383	–	562	1.89	2330	5.89 µM
